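Values below derive from 48-hour exposures of cells grown in 96-well plates, with endpoints linearly interpolated between the two concentrations bracketing the appropriate inhibition level. Here, GI50 denotes the concentration required for 50% inhibition of growth.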 Calls of active or inactive are those of the source. Rule as the data show it: active = GI50 up to about 1.1 µM and inactive = higher.
Key:
Assay in all cases: NCI anticancer screen, dose series, 48 h
[1] = system: SF-268
[2] = system: TK-10
[3] = system: UO-31
[4] = system: SW-620
[5] = system: MOLT-4
[6] = system: SR
[7] = system: EKVX
[8] = system: SN12C
[9] = system: Malme-3M
[10] = system: A498
[11] = system: SF-295
[12] = system: DU-145
[13] = system: HCT-15
[14] = system: RPMI-8226
[15] = system: T47D
[16] = system: NCI-H23
[17] = system: NCI-H522
[18] = system: KM12
[19] = system: 786-0
[20] = system: UACC-62

With Cc1c(C#N)c2nnn(-c3ccc(Cl)cc3)c(=O)n2c1-c1ccccc1 the GI50 [1] was 0.199 µM (active), the GI50 [2] was 0.476 µM (active) and the GI50 [3] was 3.29 µM (inactive). For the same compound, the GI50 [4] was 0.113 µM (active), the GI50 [5] was 0.063 µM (active) and the GI50 [6] was < 0.0212 µM (active). The GI50 [7] was 0.237 µM (active), the GI50 [8] was 0.107 µM (active) and the GI50 [9] was 0.0468 µM (active). The GI50 [10] was 0.124 µM (active), the GI50 [11] was 0.0531 µM (active) and the GI50 [12] was 0.0895 µM (active). The GI50 [13] was 0.0628 µM, the GI50 [14] was 0.16 µM (active) and the GI50 [15] was 6.58 µM (inactive). For the same compound, the GI50 [16] was 0.167 µM (active), the GI50 [17] was 0.0586 µM (active) and the GI50 [18] was 0.051 µM (active). For the same compound, the GI50 [19] was 0.12 µM (active) and the GI50 [20] was 0.149 µM (active).
With COc1ccc(/C(CC2OC(=O)c3ccccc32)=N\NC(=O)C[N+](C)(C)C)cc1 (stereo not given) the GI50 [1] was 30.5 µM (inactive), the GI50 [2] was 33.4 µM (inactive) and the GI50 [3] was 26.5 µM (inactive). For the same compound, the GI50 [4] was 25.5 µM (inactive), the GI50 [5] was 23.7 µM (inactive) and the GI50 [6] was 18.2 µM (inactive). For the same compound, the GI50 [7] was 39.4 µM (inactive), the GI50 [8] was 34.7 µM (inactive) and the GI50 [9] was 31.1 µM (inactive). The GI50 [10] was 24.3 µM (inactive), the GI50 [11] was 47.5 µM (inactive) and the GI50 [12] was 20.5 µM (inactive). The GI50 [13] was 19.2 µM, the GI50 [14] was 15.2 µM (inactive) and the GI50 [15] was 25.8 µM (inactive). For the same compound, the GI50 [16] was 17.5 µM (inactive), the GI50 [17] was 24.7 µM (inactive) and the GI50 [18] was 21.2 µM (inactive). For the same compound, the GI50 [19] was 23.6 µM (inactive) and the GI50 [20] was 15.4 µM (inactive).
With C=C(O)c1ccccc1C#Cc1ccccc1C(=O)OC the GI50 [1] was > 10 µM (inactive), the GI50 [2] was > 10 µM (inactive) and the GI50 [3] was > 10 µM (inactive). The GI50 [4] was > 10 µM (inactive), the GI50 [5] was > 10 µM (inactive) and the GI50 [6] was > 10 µM (inactive). For the same compound, the GI50 [7] was > 10 µM (inactive), the GI50 [8] was > 10 µM (inactive) and the GI50 [9] was > 10 µM (inactive). For the same compound, the GI50 [10] was > 10 µM (inactive), the GI50 [11] was > 10 µM (inactive) and the GI50 [12] was > 10 µM (inactive). The GI50 [13] was greater than 10 µM, the GI50 [14] was > 10 µM (inactive) and the GI50 [15] was > 10 µM (inactive). For the same compound, the GI50 [16] was > 10 µM (inactive), the GI50 [17] was > 10 µM (inactive) and the GI50 [18] was > 10 µM (inactive). The GI50 [19] was > 10 µM (inactive) and the GI50 [20] was > 10 µM (inactive).
For S=C1SSC2N=CC=CC12 (stereo not given), the GI50 [1] was > 100 µM (inactive), the GI50 [2] was > 100 µM (inactive) and the GI50 [3] was > 100 µM (inactive). For the same compound, the GI50 [4] was > 100 µM (inactive), the GI50 [5] was 38.3 µM (inactive) and the GI50 [6] was 45.4 µM (inactive). The GI50 [7] was > 100 µM (inactive), the GI50 [8] was > 100 µM (inactive) and the GI50 [9] was 56 µM (inactive). For the same compound, the GI50 [10] was 29.9 µM (inactive), the GI50 [11] was 84.9 µM (inactive) and the GI50 [12] was > 100 µM (inactive). The GI50 [13] was 57.8 µM, the GI50 [14] was 63.8 µM (inactive) and the GI50 [15] was 93.5 µM (inactive). The GI50 [16] was > 100 µM (inactive), the GI50 [17] was 68.9 µM (inactive) and the GI50 [18] was 17.3 µM (inactive). The GI50 [19] was > 100 µM (inactive) and the GI50 [20] was 76.4 µM (inactive).
O=C1CC2C(=O)C1C(C(=O)O)C2C(=O)O (stereo not given) was tested, and the GI50 [1] was > 100 µM (inactive), the GI50 [2] was > 100 µM (inactive) and the GI50 [3] was > 100 µM (inactive). The GI50 [4] was > 100 µM (inactive), the GI50 [5] was > 100 µM (inactive) and the GI50 [6] was > 100 µM (inactive). For the same compound, the GI50 [7] was > 100 µM (inactive), the GI50 [8] was > 100 µM (inactive) and the GI50 [9] was > 100 µM (inactive). For the same compound, the GI50 [10] was > 100 µM (inactive), the GI50 [11] was > 100 µM (inactive) and the GI50 [12] was > 100 µM (inactive). For the same compound, the GI50 [13] was greater than 100 µM, the GI50 [14] was > 100 µM (inactive) and the GI50 [15] was > 100 µM (inactive). The GI50 [16] was > 100 µM (inactive), the GI50 [17] was > 100 µM (inactive) and the GI50 [18] was > 100 µM (inactive). The GI50 [19] was > 100 µM (inactive) and the GI50 [20] was > 100 µM (inactive).
With N#Cc1cccc(C2ON=C(c3ccc([N+](=O)[O-])cc3)N2C23CC4CC(CC(C4)C2)C3)c1 (stereo not given) the GI50 [1] was > 100 µM (inactive), the GI50 [2] was > 100 µM (inactive) and the GI50 [3] was 24.1 µM (inactive). For the same compound, the GI50 [4] was > 100 µM (inactive), the GI50 [5] was 6.68 µM (inactive) and the GI50 [6] was 7.71 µM (inactive). The GI50 [7] was > 100 µM (inactive), the GI50 [8] was > 100 µM (inactive) and the GI50 [9] was 59.7 µM (inactive). For the same compound, the GI50 [10] was > 100 µM (inactive), the GI50 [11] was 79.8 µM (inactive) and the GI50 [12] was > 100 µM (inactive). For the same compound, the GI50 [13] was 66.8 µM, the GI50 [14] was > 100 µM (inactive) and the GI50 [15] was 17.3 µM (inactive). The GI50 [16] was > 100 µM (inactive), the GI50 [17] was 24.3 µM (inactive) and the GI50 [18] was > 100 µM (inactive). The GI50 [19] was > 100 µM (inactive) and the GI50 [20] was > 100 µM (inactive).
For CC(C)(C)c1ccc2c(c1)OCc1n[nH]c(n1)COc1cc(C(C)(C)C)ccc1OCCOCCO2, the GI50 [1] was 4.37 µM (inactive), the GI50 [2] was 2.58 µM (inactive) and the GI50 [3] was 3.67 µM (inactive). The GI50 [4] was 3.16 µM (inactive), the GI50 [5] was 3.67 µM (inactive) and the GI50 [6] was 3.09 µM (inactive). The GI50 [7] was 4.3 µM (inactive), the GI50 [8] was 4.55 µM (inactive) and the GI50 [9] was 2.07 µM (inactive). For the same compound, the GI50 [10] was 5.64 µM (inactive), the GI50 [11] was 3.55 µM (inactive) and the GI50 [12] was 6.52 µM (inactive). The GI50 [13] was 4.95 µM, the GI50 [14] was 2.99 µM (inactive) and the GI50 [15] was 3.48 µM (inactive). For the same compound, the GI50 [16] was 3.09 µM (inactive), the GI50 [17] was 2.4 µM (inactive) and the GI50 [18] was 3.85 µM (inactive). For the same compound, the GI50 [19] was 4.45 µM (inactive) and the GI50 [20] was 2.88 µM (inactive).
For c1ccc2c3c([nH]c2c1)C1c2[nH]c4ccccc4c2CCN1CC3, the GI50 [1] was 14.4 µM (inactive), the GI50 [2] was 11.2 µM (inactive) and the GI50 [3] was 5.62 µM (inactive). For the same compound, the GI50 [4] was 16.2 µM (inactive), the GI50 [5] was 7.59 µM (inactive) and the GI50 [6] was 9.75 µM (inactive). For the same compound, the GI50 [7] was 6.12 µM (inactive), the GI50 [8] was 15.2 µM (inactive) and the GI50 [9] was 15.1 µM (inactive). For the same compound, the GI50 [10] was 19 µM (inactive), the GI50 [11] was 16 µM (inactive) and the GI50 [12] was 13.2 µM (inactive). For the same compound, the GI50 [13] was 11 µM, the GI50 [14] was 11.9 µM (inactive) and the GI50 [15] was 14.9 µM (inactive). The GI50 [16] was 12.3 µM (inactive), the GI50 [17] was 11.6 µM (inactive) and the GI50 [18] was 12.5 µM (inactive). The GI50 [19] was 12.6 µM (inactive) and the GI50 [20] was 16.7 µM (inactive).
With O=C(/C=C/c1ccccc1)c1ccccc1 [CHALCONE] the GI50 [1] was > 10 µM (inactive), the GI50 [2] was > 10 µM (inactive) and the GI50 [3] was > 10 µM (inactive). The GI50 [4] was 3.34 µM (inactive), the GI50 [5] was 0.938 µM (active) and the GI50 [6] was > 6.58 µM (inactive). The GI50 [7] was > 10 µM (inactive), the GI50 [8] was > 10 µM (inactive) and the GI50 [9] was > 10 µM (inactive). The GI50 [10] was > 10 µM (inactive), the GI50 [11] was > 10 µM (inactive) and the GI50 [12] was > 10 µM (inactive). For the same compound, the GI50 [13] was greater than 10 µM, the GI50 [14] was > 4.85 µM (inactive) and the GI50 [15] was > 10 µM (inactive). For the same compound, the GI50 [16] was > 10 µM (inactive), the GI50 [17] was > 10 µM (inactive) and the GI50 [18] was 3.78 µM (inactive). The GI50 [19] was > 10 µM (inactive) and the GI50 [20] was > 10 µM (inactive).
In the case of O=C1c2scnc2-c2nccc3c2c1nc1ccccc13 [KUANONIAMINE A], the GI50 [1] is reported as 1.78 µM (inactive), the GI50 [2] is reported as 1.46 µM (inactive) and the GI50 [3] is reported as 1.16 µM (inactive). The GI50 [4] was 0.288 µM (active), the GI50 [5] was 0.469 µM (active) and the GI50 [6] was 0.137 µM (active). The GI50 [7] was 2.92 µM (inactive), the GI50 [8] was 1.4 µM (inactive) and the GI50 [9] was 0.684 µM (active). For the same compound, the GI50 [10] was 1.26 µM (inactive), the GI50 [11] was 1.58 µM (inactive) and the GI50 [12] was 1.6 µM (inactive). For the same compound, the GI50 [13] was 0.207 µM, the GI50 [14] was 1.37 µM (inactive) and the GI50 [15] was 0.215 µM (active). The GI50 [16] was 0.223 µM (active), the GI50 [17] was 0.0169 µM (active) and the GI50 [18] was 1.41 µM (inactive). For the same compound, the GI50 [19] was 1.21 µM (inactive) and the GI50 [20] was 0.38 µM (active).
